Test results reported in ChEMBL document CHEMBL3612037, “Design and synthesis of some new pyrazolyl-pyrazolines as potential anti-inflammatory, analgesic and antibacterial agents” (Eur J Med Chem, 2015).
Converted amounts (≈) assume the structure as drawn. The source made the active and inactive calls. No cut-off for these calls is given here.

Columns and labels:
Aeromonas hydrophila [1] = test: Antimicrobial activity against Aeromonas hydrophila by agar dilution method; type: functional
Staphylococcus aureus [2] = test: Antimicrobial activity against Staphylococcus aureus by agar dilution method; type: functional
Staphylococcus [3] = test: Antimicrobial activity against Staphylococcus citreus by agar dilution method; type: functional
Escherichia coli [4] = test: Antimicrobial activity against Escherichia coli by agar dilution method; type: functional
Staphylococcus [5] = test: Antimicrobial activity against Staphylococcus citreus at 20 uL of 1 mg/ml by disc diffusion assay; type: functional; settings: for zone of inhibition at 1000 µg/mL: read-out: IZ
Rattus norvegicus [6] = test: Analgesic activity in Wistar rat assessed as tail flick latency time at 50 mg/kg, po measured 60 mins post dose by tail flick method (reference value: 3.47 +/- 0.1 secs); type: functional
Rattus norvegicus [7] = test: Anti-inflammatory activity in Wistar rat assessed as inhibition of carrageenan-induced paw oedema at 50 mg/kg, po dosed 30 mins before carrageenan challenge and measured 30 mins post carrageenan challenge; type: functional
[8] = Acute toxicity in Swiss mouse at 100 to 1000 mg/kg, po measured 48 hrs post dose; type: organism-based; settings: in vivo
Aeromonas hydrophila [9] = test: Antimicrobial activity against Aeromonas hydrophila at 20 uL of 1 mg/ml by disc diffusion assay; type: functional; settings: for zone of inhibition at 1000 µg/mL: read-out: IZ
Rattus norvegicus [10] = test: Analgesic activity in Wistar rat assessed as tail flick latency time at 50 mg/kg, po measured 0 mins post dose by tail flick method (reference value: 3.5 +/- 0.8 secs); type: functional
Escherichia coli [11] = test: Antimicrobial activity against Escherichia coli at 20 uL of 1 mg/ml by disc diffusion assay; type: functional; settings: for zone of inhibition at 1000 µg/mL: read-out: IZ
Staphylococcus aureus [12] = test: Antimicrobial activity against Staphylococcus aureus at 20 uL of 1 mg/ml by disc diffusion assay; type: functional; settings: read-out: IZ
Mus musculus [13] = test: Acute toxicity in Swiss mouse assessed as induction of diarrhoea incidence at 100 to 1000 mg/kg, po measured 48 hrs post dose; type: organism-based; settings: in vivo
Rattus norvegicus [14] = test: Analgesic activity in Wistar rat assessed as tail flick latency time at 50 mg/kg, po measured 30 mins post dose by tail flick method (reference value: 3.46 +/- 0.1 secs); type: functional
Rattus norvegicus [15] = test: Anti-inflammatory activity in Wistar rat assessed as inhibition of carrageenan-induced paw oedema at 50 mg/kg, po dosed 30 mins before carrageenan challenge and measured 120 mins post carrageenan challenge; type: functional
Mus musculus [16] = test: Acute toxicity in Swiss mouse assessed as induction of depression incidence at 100 to 1000 mg/kg, po measured 48 hrs post dose; type: organism-based; settings: in vivo
Rattus norvegicus [17] = test: Anti-inflammatory activity in Wistar rat assessed as inhibition of carrageenan-induced paw oedema at 50 mg/kg, po dosed 30 mins before carrageenan challenge and measured 60 mins post carrageenan challenge; type: functional
Rattus norvegicus [18] = test: Analgesic activity in Wistar rat assessed as tail flick latency time at 50 mg/kg, po measured 90 mins post dose by tail flick method (reference value: 3.7 +/- 0.1 secs); type: functional
Rattus norvegicus [19] = test: Analgesic activity in Wistar rat assessed as tail flick latency time at 20 mg/kg, po measured 0 mins post dose by tail flick method (reference value: 3.5 +/- 0.8 secs); type: functional
Rattus norvegicus [20] = test: Analgesic activity in Wistar rat assessed as tail flick latency time at 20 mg/kg, po measured 60 mins post dose by tail flick method (reference value: 3.47 +/- 0.1 secs); type: functional
Rattus norvegicus [21] = test: Analgesic activity in Wistar rat assessed as tail flick latency time at 20 mg/kg, po measured 90 mins post dose by tail flick method (reference value: 3.7 +/- 0.1 secs); type: functional
Rattus norvegicus [22] = test: Analgesic activity in Wistar rat assessed as tail flick latency time at 20 mg/kg, po measured 30 mins post dose by tail flick method (reference value: 3.46 +/- 0.1 secs); type: functional
Rattus norvegicus [23] = test: Anti-inflammatory activity in Wistar rat assessed as inhibition of carrageenan-induced paw oedema at 20 mg/kg, po dosed 30 mins before carrageenan challenge and measured 120 mins post carrageenan challenge; type: functional
Rattus norvegicus [24] = test: Anti-inflammatory activity in Wistar rat assessed as inhibition of carrageenan-induced paw oedema at 20 mg/kg, po dosed 30 mins before carrageenan challenge and measured 60 mins post carrageenan challenge; type: functional
Rattus norvegicus [25] = test: Anti-inflammatory activity in Wistar rat assessed as inhibition of carrageenan-induced paw oedema at 20 mg/kg, po dosed 30 mins before carrageenan challenge and measured 30 mins post carrageenan challenge; type: functional

| Compound | MIC (Aeromonas hydrophila [1]) [µg/mL] | MIC (Staphylococcus aureus [2]) [µg/mL] | MIC (Staphylococcus [3]) [µg/mL] | MIC (Escherichia coli [4]) [µg/mL] | zone of inhibition at 1000 µg/mL (Staphylococcus [5]) [mm] | Time (Rattus norvegicus [6]) [s] | inhibition in vivo at 50 mg/kg (Rattus norvegicus [7]) [%] | LD50 at 48 h [8] [mg/kg] | zone of inhibition at 1000 µg/mL (Aeromonas hydrophila [9]) [mm] | Time (Rattus norvegicus [10]) [s] | zone of inhibition at 1000 µg/mL (Escherichia coli [11]) [mm] | zone of inhibition at 1000 µg/mL (Staphylococcus aureus [12]) [mm] | Activity (Mus musculus [13]) | Time (Rattus norvegicus [14]) [s] | inhibition in vivo at 50 mg/kg (Rattus norvegicus [15]) [%] | Activity (Mus musculus [16]) | inhibition in vivo at 50 mg/kg (Rattus norvegicus [17]) [%] | Time (Rattus norvegicus [18]) [s] | further results |
| --- | --- | --- | --- | --- | --- | --- | --- | --- | --- | --- | --- | --- | --- | --- | --- | --- | --- | --- | --- |
| CC1(C)S[C@@H]2[C@H](NC(=O)[C@H](N)c3ccccc3)C(=O)N2[C@H]1C(=O)O [AMPICILLIN] | 200 (≈ 572 µM) | 300 (≈ 859 µM) | 200 (≈ 572 µM) | 100 (≈ 286 µM) | – | – | – | – | – | – | – | – | – | – | – | – | – | – | – |
| CCC(=O)N1N=C(c2ccc(Cl)cc2)CC1c1cn(-c2ccccc2)nc1-c1ccc(Cl)c(Cl)c1 (stereo not given) | – | 300 (≈ 573 µM) | – | – | 18 | 6.8 | 47.9 | 500 | 23 | 3.3 | 19 | 30 | Non-toxic | 6.1 | 68.8 | Non-toxic | 61.1 | 5.4 | – |
| CCC(=O)N1N=C(c2ccc(F)cc2)CC1c1cn(-c2ccccc2)nc1-c1ccc(Cl)c(Cl)c1 (stereo not given) | 400 (≈ 788 µM) | – | – | – | 15 | 7.7 | 51.1 | 500 | 28 | 3.4 | 21 | 23 | Non-toxic | 7.9 | 75.6 | Non-toxic | 63.4 | 7.2 | – |
| Fc1ccc(C2=NN(c3ccccc3)C(c3cn(-c4ccccc4)nc3-c3ccc(Cl)c(Cl)c3)C2)cc1 (stereo not given) | – | 300 (≈ 569 µM) | 200 (≈ 379 µM) | – | 37 | 5.2 | 44.7 | 500 | – | 3.1 | 21 | 31 | Non-toxic | 4.6 | 60.1 | Non-toxic | 55.7 | 4.8 | inhibition zone (IZ) (Aeromonas hydrophila [9]): inactive |
| Clc1ccc(C2=NNC(c3cn(-c4ccccc4)nc3-c3ccc(Cl)c(Cl)c3)C2)cc1 (stereo not given) | – | – | – | 200 (≈ 428 µM) | 18 | 5.7 | 33 | 500 | 15 | 3.6 | 34 | 21 | Non-toxic | 5.4 | 48.4 | Non-toxic | 45.8 | 4.6 | – |
| CC(C)=CCN1CC[C@]2(C)c3cc(O)ccc3C[C@H]1[C@H]2C [(+)-PENTAZOCINE] | – | – | – | – | – | – | – | – | – | – | – | – | – | – | – | – | – | – | Time (Rattus norvegicus [19]): 3.6 s; Time (Rattus norvegicus [20]): 7.7 s; Time (Rattus norvegicus [21]): 7.9 s; Time (Rattus norvegicus [22]): 7.4 s |
| CO/N=C(\C(=O)N[C@@H]1C(=O)N2C(C(=O)O)=C(COC(N)=O)CS[C@H]12)c1ccco1 [CEFUROXIME] | 500 (≈ 1180 µM) | – | 600 (≈ 1410 µM) | 500 (≈ 1180 µM) | – | – | – | – | – | – | – | – | – | – | – | – | – | – | – |
| CN(C)[C@@H]1C(O)=C(C(N)=O)C(=O)[C@@]2(O)C(O)=C3C(=O)c4c(O)cccc4[C@@](C)(O)[C@H]3C[C@@H]12 [TETRACYCLINE] | 400 (≈ 900 µM) | 300 (≈ 675 µM) | 300 (≈ 675 µM) | 400 (≈ 900 µM) | – | – | – | – | – | – | – | – | – | – | – | – | – | – | – |
| O=C(O)Cc1ccccc1Nc1c(Cl)cccc1Cl [DICLOFENAC SODIUM] | – | – | – | – | – | – | – | – | – | – | – | – | – | – | – | – | – | – | inhibition in vivo at 20 mg/kg (Rattus norvegicus [23]): 76.6%; inhibition in vivo at 20 mg/kg (Rattus norvegicus [24]): 71%; inhibition in vivo at 20 mg/kg (Rattus norvegicus [25]): 46.8% |
| Clc1ccc(C2=NN(c3ccccc3)C(c3cn(-c4ccccc4)nc3-c3ccc(Cl)c(Cl)c3)C2)cc1 (stereo not given) | 400 (≈ 735 µM) | – | – | – | 19 | 6.1 | 45.7 | 500 | 28 | 4.3 | – | 15 | Non-toxic | 6.1 | 61.7 | Non-toxic | 53.4 | 4.9 | inhibition zone (IZ) (Escherichia coli [11]): inactive |
| CN[C@H](CC(C)C)C(=O)N[C@H]1C(=O)N[C@@H](CC(N)=O)C(=O)N[C@H]2C(=O)N[C@H]3C(=O)N[C@H](C(=O)N[C@H](C(=O)O)c4cc(O)cc(O)c4-c4cc3ccc4O)[C@H](O)c3ccc(c(Cl)c3)Oc3cc2cc(c3O[C@@H]2O[C@H](CO)[C@@H](O)[C@H](O)[C@H]2O[C@H]2C[C@](C)(N)[C@H](O)[C@H](C)O2)Oc2ccc(cc2Cl)[C@H]1O [VANCOMYCIN] | – | 500 (≈ 345 µM) | 500 (≈ 345 µM) | – | – | – | – | – | – | – | – | – | – | – | – | – | – | – | – |
| Cc1ccc(C2=NN(c3ccccc3)C(c3cn(-c4ccccc4)nc3-c3ccc(Cl)c(Cl)c3)C2)cc1 (stereo not given) | – | – | – | – | – | 7.1 | 46.8 | 500 | 18 | 3.3 | 20 | 15 | Non-toxic | 6.7 | 62.5 | Non-toxic | 58.8 | 6.6 | inhibition zone (IZ) (Staphylococcus [5]): inactive |
